Assay results as given in PubChem BioAssay AID2060488 (Molecular Pharmacology Branch, DTP, NCI, 2025).
pIC50: −log10 of the molar value.

Test system: 966289-007-R4-J1-PDC complex spheroid viability
Assay: Anticancer human tumor 966289-007-R4-J1-PDC patient-derived pancreatic adenocarcinoma cell line growth inhibition [GQUAD]
Details: for pIC50: curve of first compound; for viability, T/C: stronger effect = lower value
From the text: DNA G-quadruplex Stabilizer Agents in Combinations in Complex Spheroids
A high-throughput screen of multi-cell type tumor spheroids was designed to identify active combinations of DNA G-quadruplex stabilizer agents and targeted small molecules. Complex spheroids include a stromal component modeled by human endothelial cells (HUVEC) and fibroblasts modeled by human mesenchymal stem cells (MSCs). The concentration ranges selected for each drug and investigational agent were based upon clinically achievable concentrations if the clinical Cmax of the agent was known.
Compounds. The drugs and investigational agents: pidnarulex (CX-5461; NSC782164), APTO-253 (NSC789042), BRACO-19 (NSC847499), peposertib (NSC802822), ceralasertib (NSC780249), elimusertib (NSC800525), camonsertib (NSC841442), AZD-1390 (NSC803789), olaparib (NSC753686), talazoparib (NSC767125), ART-558 (NSC835418), sotorasib (NSC818433), MRTX-1133 (NSC836407), SN-38 (NSC673596), topotecan (NSC609699), etoposide (NSC141540), doxorubicin (NSC123127), gemcitabine (NSC613327), 5-fluorouracil (NSC19893), paclitaxel (NSC125973), vemurafenib (NSC761431), panobinostat (NSC761190), R-306465 (JNJ-16241199; NSC773264), adavosertib (NSC754352), TP-3654 (NSC805149), carboplatin (NSC241240), KSQ-4279 (NSC840948), and staurosporine (NSC755774) were obtained from the National Cancer Institute (NCI) Developmental Therapeutics Program Chemical Repository (34). The FDA-approved anticancer drug set is available from the NCI Developmental Therapeutics Program. […] The stock solutions were prepared in dimethyl sulfoxide (DMSO, Sigma-Aldrich, St. Louis, MO, cat. D2650) at 800-fold the tested concentration and stored at -70 degrees C prior to their use. All drugs and investigational agents were tested over a range starting from a high concentration at or near the clinical Cmax and decreasing in half-log increments. If the clinical Cmax for an agent had not been determined, the highest concentration tested was 10 microM.
2.3 Cell Culture. All cells were maintained in an incubator at 37 degrees C and 5% CO2 with 95% humidity. The PDC lines were cultured according to standard operating procedures established by the NCI PDMR. All PDCs were thawed and cultured in Matrigel-coated flasks prepared with a working solution of 1X Ham's F-12 nutrient mix, without supplementation (Invitrogen, cat. 11765054), 100 U/mL penicillin-streptomycin (Invitrogen, cat. 15140122), and 2.5% Matrigel (Corning Inc., cat. 354248) for the first three passages. The 857933-349-R-J2-PDC line was cultured in 6C/Colon 1B media, which includes advanced DMEM/F-12 (Thermo Fisher Scientific, cat. 12634028), 10 mM HEPES (Thermo Fisher Scientific, cat. 15630080), 1X GlutaMAX supplement (Thermo Fisher Scientific, cat. 35050061), 0.1 mg/mL primocin (InvivoGen, cat. ant-pm-2), 10% defined fetal bovine serum, heat inactivated (HyClone Laboratories Inc., cat. SH30070.03HI), 50% L-WRN conditioned media (ATCC, cat. CRL-3276), 1.25 mM N-Acetyl-L-cysteine (Sigma-Aldrich, cat. A9165), 10 mM nicotinamide (Sigma-Aldrich, cat. N0636), 1X B-27 supplement (Thermo Fisher Scientific, cat. 17504044), 1X N-2 supplement (Thermo Fisher Scientific, cat. 17502048), 10 microM Y-27632 dihydrochloride (Tocris Bioscience, cat. 1254), and 50 ng/mL human EGF recombinant protein (Thermo Fisher Scientific, cat. PHG0311). The 485176-168-R4-J1-PDC line was cultured in Panc media, which includes all 6C/Colon 1B media components plus 100 ng/mL human FGF-10 (Thermo Fisher Scientific, cat. 100-26), 500 nM SB-431542 (Selleckchem, cat. S1067), and gastrin (Tocris, cat. 3006).
[…]
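Also: spheroids exposed to the agents for seven days before readout.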
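For viability, T/C in this document: percent viability relative to DMSO vehicle control wells taken as 100%.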

Cc1cccc(N(C)C(=O)C2C(O)CCN2c2nc(C)cc(C(F)(F)F)c2C#N)c1 (configuration not stated) + Cc1[nH]c2ccc(F)cc2c1-c1nc2c3cccnc3c3ncccc3c2[nH]1
pIC50 (second compound 0.0316 µM): < 5.00
pIC50 (second compound 0.1 µM): < 5.00
pIC50 (second compound 0.316 µM): < 5.00
pIC50 (second compound 1 µM): < 5.00
pIC50 (second compound 3.16 µM): < 5.00
pIC50 (second compound 10 µM): < 5.00
viability, T/C (second compound 0.0316 µM, first compound 0.0316 µM): 109%
viability, T/C (second compound 0.0316 µM, first compound 0.1 µM): 90.5%
viability, T/C (second compound 0.0316 µM, first compound 0.316 µM): 108%
viability, T/C (second compound 0.0316 µM, first compound 1 µM): 90.6%
viability, T/C (second compound 0.0316 µM, first compound 3.16 µM): 106%
viability, T/C (second compound 0.0316 µM, first compound 10 µM): 104%
viability, T/C (second compound 0.1 µM, first compound 0.0316 µM): 109%
viability, T/C (second compound 0.1 µM, first compound 0.1 µM): 98.6%
viability, T/C (second compound 0.1 µM, first compound 0.316 µM): 97.2%
viability, T/C (second compound 0.1 µM, first compound 1 µM): 101%
viability, T/C (second compound 0.1 µM, first compound 3.16 µM): 106%
viability, T/C (second compound 0.1 µM, first compound 10 µM): 103%
viability, T/C (second compound 0.316 µM, first compound 0.0316 µM): 97.6%
viability, T/C (second compound 0.316 µM, first compound 0.1 µM): 104%
viability, T/C (second compound 0.316 µM, first compound 0.316 µM): 98.1%
viability, T/C (second compound 0.316 µM, first compound 1 µM): 104%
viability, T/C (second compound 0.316 µM, first compound 3.16 µM): 99.7%
viability, T/C (second compound 0.316 µM, first compound 10 µM): 106%
viability, T/C (second compound 1 µM, first compound 0.0316 µM): 102%
viability, T/C (second compound 1 µM, first compound 0.1 µM): 96.8%
viability, T/C (second compound 1 µM, first compound 0.316 µM): 98.7%
viability, T/C (second compound 1 µM, first compound 1 µM): 106%
viability, T/C (second compound 1 µM, first compound 3.16 µM): 97.2%
viability, T/C (second compound 1 µM, first compound 10 µM): 110%
viability, T/C (second compound 3.16 µM, first compound 0.0316 µM): 104%
viability, T/C (second compound 3.16 µM, first compound 0.1 µM): 104%
viability, T/C (second compound 3.16 µM, first compound 0.316 µM): 110%
viability, T/C (second compound 3.16 µM, first compound 1 µM): 107%
viability, T/C (second compound 3.16 µM, first compound 3.16 µM): 113%
viability, T/C (second compound 3.16 µM, first compound 10 µM): 114%
viability, T/C (second compound 10 µM, first compound 0.0316 µM): 107%
viability, T/C (second compound 10 µM, first compound 0.1 µM): 102%
viability, T/C (second compound 10 µM, first compound 0.316 µM): 110%
viability, T/C (second compound 10 µM, first compound 1 µM): 104%
viability, T/C (second compound 10 µM, first compound 3.16 µM): 103%
viability, T/C (second compound 10 µM, first compound 10 µM): 113%
